In ChEMBL document CHEMBL5150068, “Structure-Based Design of Tropane Derivatives as a Novel Series of CCR5 Antagonists with Broad-Spectrum Anti-HIV-1 Activities and Improved Oral Bioavailability” (J Med Chem, 2022):
Several values for one entry are separate records, joined by “and”; a condition that tells them apart may be missing. Equal entries are not always repeated.

How the values were obtained:
[1] = molecular target: C-C chemokine receptor type 5 (Homo sapiens, UniProt P51681); assay: Antagonist activity at CCR5 (unknown origin) expressed in HEK293 cells co-expressing Galpha16 assessed as intracellular calcium change incubated for 15 mins by Fluo-4 AM calcium flux assay; type: functional, cell-based
[2] = test system: Human immunodeficiency virus 1; assay: Antiviral activity against HIV-1 Ba-L infected in human TZM-bl cells measured after 48 hrs incubation by luciferase based analysis; type: functional, organism-based; conditions: Human immunodeficiency virus 1, Ba-L
[3] = Cytotoxicity against human TZM-bl cells incubated for 48 hrs by MTT assay; type: toxicity, cell-based
[4] = in vitro; conditions: human, TZM-bl cells
Description: Therapeutic index, ratio of CC50 for human TZM-bl cells to EC50 for antiviral activity against HIV-1 Ba-L

[5] = test system: Human immunodeficiency virus 1; assay: Antiviral activity against HIV-1 SF162 infected in human TZM-bl cells measured after 48 hrs incubation by luciferase based analysis; type: functional, organism-based; conditions: Human immunodeficiency virus 1, SF162, TZM-bl
[6] = test system: Human immunodeficiency virus 1; assay: Antiviral activity against HIV-1 YU-2 infected in human TZM-bl cells measured after 48 hrs incubation by luciferase based analysis; type: functional, organism-based
[7] = test system: Human immunodeficiency virus 1; assay: Antiviral activity against HIV-1 YU-2 (G140S/Q148H) infected in human TZM-bl cells measured after 48 hrs incubation by luciferase based analysis; type: functional, organism-based; conditions: Human immunodeficiency virus 1, YU-2 (G140S/Q148H)
[8] = test system: Human immunodeficiency virus 1; assay: Antiviral activity against HIV-1 Ba-L infected in human HOS-CD4-CCR5 cells measured after 48 hrs incubation by ELISA based p24 antigen assay; type: functional, organism-based; conditions: Human immunodeficiency virus 1, Ba-L
[9] = test system: Human immunodeficiency virus 1; assay: Antiviral activity against HIV-1 Ba-L infected in human PM1 cells measured after 48 hrs incubation by ELISA based p24 antigen assay; type: functional, organism-based; conditions: Human immunodeficiency virus 1, Ba-L, PM1, 48 h
[10] = test system: Human immunodeficiency virus 1; assay: Antiviral activity against HIV-1 IIIB infected in human TZM-bl cells measured after 48 hrs incubation by luciferase based analysis; type: functional, organism-based; conditions: Human immunodeficiency virus 1, IIIB
[11] = test system: Human immunodeficiency virus 1; assay: Antiviral activity against HIV-1 KM018 clinical isolate infected in human PBMC measured after 48 hrs incubation by luciferase based analysis; type: functional, organism-based; conditions: Human immunodeficiency virus 1, KM018, PBMC
[12] = test system: Human immunodeficiency virus 1; assay: Antiviral activity against HIV-1 KIZ001 clinical isolate infected in human PBMC measured after 48 hrs incubation by luciferase based analysis; type: functional, organism-based; conditions: Human immunodeficiency virus 1, KIZ001, PBMC
[13] = test system: Human immunodeficiency virus 1; assay: Antiviral activity against HIV-1 KIZ006 clinical isolate infected in human PBMC measured after 48 hrs incubation by luciferase based analysis; type: functional, organism-based; conditions: Human immunodeficiency virus 1, KIZ006, PBMC
[14] = Human immunodeficiency virus 1, YU-2, TZM-bl, 48 h

Chain of C-C chemokine receptor type 5 (P51681 whole entry): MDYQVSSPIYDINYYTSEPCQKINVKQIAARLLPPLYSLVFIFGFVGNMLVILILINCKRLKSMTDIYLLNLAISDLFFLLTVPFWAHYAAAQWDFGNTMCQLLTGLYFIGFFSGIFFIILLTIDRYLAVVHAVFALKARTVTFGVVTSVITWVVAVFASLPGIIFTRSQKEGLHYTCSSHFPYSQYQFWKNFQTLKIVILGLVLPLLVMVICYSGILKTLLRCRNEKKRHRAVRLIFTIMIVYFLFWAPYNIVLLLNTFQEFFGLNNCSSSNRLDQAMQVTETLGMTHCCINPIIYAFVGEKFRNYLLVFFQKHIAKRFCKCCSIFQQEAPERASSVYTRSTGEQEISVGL

SMILES | IC50 [1] | EC50 [2] | CC50 at 48 h [3] | selectivity ratio [4] | other results
Cc1nnc(C(C)C)n1[C@@H]1C[C@H]2CC[C@@H](C1)N2CC[C@H](NC(=O)C1CCC(F)(F)CC1)c1cscn1 | 67.4 nM | 78 nM | > 200000 nM | 2560 | –
Cc1nnc(C(C)C)n1[C@@H]1C[C@H]2CC[C@@H](C1)N2CC[C@H](NC(=O)C1CCCC1)c1ccc(C#N)s1 | > 10000 nM | > 200000 nM | > 200000 nM | – | –
COCc1nnc(C(C)C)n1[C@@H]1C[C@H]2CC[C@@H](C1)N2CC[C@H](NC(=O)C1CCC(F)(F)CC1)c1ccsc1 | 2.49 nM | 30 nM | 72900 nM | 2430 | –
Cc1nnc(C(C)C)n1[C@@H]1C[C@H]2CC[C@@H](C1)N2CC[C@H](NC(=O)C1CCC(F)(F)CC1)c1ccc(C#N)s1 | > 10000 nM | > 200000 nM | > 200000 nM | – | –
CC(=O)N[C@@H](CCN1[C@@H]2CC[C@H]1C[C@H](n1c(C)nnc1C(C)C)C2)c1cccs1 | 15 nM | – | 40500 nM | 36.8 | EC50 [5]: 1100 nM
Cc1nnc(C(C)C)n1[C@@H]1C[C@H]2CC[C@@H](C1)N2CC[C@H](NC(=O)C1CCC(F)(F)CC1)c1ccsc1Cl | 5.34 nM | 540 nM | > 200000 nM | > 370 | –
Cc1ccsc1[C@H](CCN1[C@@H]2CC[C@H]1C[C@H](n1c(C)nnc1C(C)C)C2)NC(=O)C1CCCC1 | 18.9 nM | – | > 200000 nM | > 6900 | EC50 ([6]; tzm-bl): 29 nM and 78 nM
CC(=O)Nc1cccc(C(=O)N[C@@H](CCN2[C@@H]3CC[C@H]2C[C@H](n2c(C)nnc2C(C)C)C3)c2cccs2)c1 | 40.4 nM | 3390 nM | > 200000 nM | > 59 | –
Cc1nnc(C(C)C)n1[C@@H]1C[C@H]2CC[C@@H](C1)N2CC[C@H](NC(=O)C1CCCC1)c1ccsc1Cl | 4.36 nM | 910 nM | > 200000 nM | > 219 | –
Cc1nnc(C(C)C)n1[C@@H]1C[C@H]2CC[C@@H](C1)N2CC[C@H](NC(=O)C(F)(F)F)c1csc2ccccc12 | 680 nM | – | > 200000 nM | – | EC50 [5]: > 40000 nM
COc1ccc(S(N)(=O)=O)cc1C(=O)N[C@@H](CCN1[C@@H]2CC[C@H]1C[C@H](n1c(C)nnc1C(C)C)C2)c1cccs1 | 1380 nM | > 200000 nM | > 200000 nM | – | –
COC(=O)C1CCC(C(=O)N[C@@H](CCN2[C@@H]3CC[C@H]2C[C@H](n2c(C)nnc2C(C)C)C3)c2cccs2)CC1 (stereo partly specified) | 11.8 nM | – | > 200000 nM | > 22200 | EC50 [6, 14]: 9 nM
Cc1nnc(C(C)C)n1[C@H]1C[C@H]2CC[C@@H](C1)N2CC[C@H](NC(=O)C1CCCCC1)c1ccc(C#N)s1 | > 10000 nM | > 200000 nM | > 200000 nM | – | –
CNS(=O)(=O)c1cccc(C(=O)N[C@@H](CCN2[C@@H]3CC[C@H]2C[C@H](n2c(C)nnc2C(C)C)C3)c2cccs2)c1 | 31.9 nM | 4630 nM | > 200000 nM | > 43.2 | –
Cc1nnc(C(C)C)n1[C@@H]1C[C@H]2CC[C@@H](C1)N2CC[C@H](NC(=O)C1CCCCC1)c1ccc(F)s1 | 9.33 nM | – | > 200000 nM | > 75.2 | EC50 [5]: 2660 nM
CC(=O)N[C@@H](CCN1C2CCC1CC(n1c(C)nc3c1CCN(C(=O)C(C)C)C3)C2)c1cccc(F)c1 (stereo partly specified) | 18.9 nM | – | – | – | EC50 [7]: 2.3 nM
Cc1csc([C@H](CCN2[C@@H]3CC[C@H]2C[C@H](n2c(C)nnc2C(C)C)C3)NC(=O)C2CCN(S(C)(=O)=O)CC2)c1 | 21.5 nM | – | > 200000 nM | > 10500 | EC50 [6, 14]: 19 nM
Cc1ccc([C@H](CCN2[C@@H]3CC[C@H]2C[C@H](n2c(C)nnc2C(C)C)C3)NC(=O)C2CCN(S(C)(=O)=O)CC2)s1 | 7.99 nM | 4540 nM | > 200000 nM | > 44 | –
Cc1ccc([C@H](CCN2[C@@H]3CC[C@H]2C[C@H](n2c(C)nnc2C(C)C)C3)NC(=O)CC#N)s1 | 72.7 nM | > 50000 nM | > 200000 nM | – | –
Cc1ccc([C@H](CCN2[C@@H]3CC[C@H]2C[C@H](n2c(C)nnc2C(C)C)C3)NC(=O)Cn2cnnn2)s1 | 45.1 nM | > 50000 nM | > 200000 nM | – | –
Cc1nnc(C(C)C)n1[C@H]1C[C@H]2CC[C@@H](C1)N2CC[C@H](NC(=O)C1CCC(F)(F)CC1)c1ccccc1 [MARAVIROC] | – | 15 nM | – | – | EC50 [5]: 19.2 nM; EC50 [6, 14]: 2.96 nM; EC50 [8]: 1.04 nM; EC50 [9]: 0.34 nM; EC50 [10]: > 1000 nM; EC50 [11]: 10.2 nM; EC50 [12]: 14.9 nM; EC50 [13]: 92 nM; EC50 [7]: 2.18 nM
